Results on eight compounds are retold here after publication PMC5895059, “Scaffold hopping from (5-hydroxymethyl) isophthalates to multisubstituted pyrimidines diminishes binding affinity to the C1 domain of protein kinase C” (PLoS ONE, 2018).

“And” between values parts separate entries of the source, which are not always exact repeats. Identical values can stand only once.

The target of experiment [1] is T1, PKCα (Homo sapiens, UniProt P17252). Particulars: read-out: Ki PKCα; cited from earlier work.
Another experiment has as its target PKCα and -δ. Also noted: method as in PMID 19438240. Particulars: for PKCα and -δ; cited from earlier work.
Experiment [2] concerns the target T1, PKCα. The experiment can be described thus: [3H]PDBu displacement, 96-well plate filtration binding assay. The following applies: for Displacement assay raw data (CCPM): single replicate wells.

Regarding `C/C=C(/C)C(=O)O[C@H]1C(C)=C[C@]23C(=O)[C@H](C=C(CO)[C@@H](O)[C@]12O)[C@H]1[C@@H](C[C@H]3C)C1(C)C` [Ingenol 3-angelate, ingenol 3-angelate], on PKCα [1], the Ki (in general, the equilibrium dissociation constant of an inhibitor or competing ligand from its target) was 0.0001 µM.

On to `CC(C)C1C(=O)NC(CO)Cc2c[nH]c3cccc(c23)N1C` (centres unmarked) [Indolactam-V, indolactam-V], for which the Ki on PKCα [1] was 0.011 µM.

On to `CCCCC(CC)OC(=O)c1cc(CO)cc(C(=O)OC(CC)CCCC)c1` (centres unmarked) [HMI-1b11], for which, on PKCα and -δ, the Ki is 0.205 to 0.915 µM.

For the compound `CC(=O)O[C@@]12[C@H](O)[C@@H](C)[C@@]3(O)[C@@H](C=C(CO)C[C@]4(O)C(=O)C(C)=C[C@@H]34)[C@@H]1C2(C)C` [Phorbol 13-acetate, phorbol 13-acetate], on PKCα [1], the Ki is 120 µM.

In the case of `CC1=CC[C@H](C)C(C)(C)[C@@H]1/C=C/C(C)=C/CC[C@@]1(CO)[C@H](CCCO)/C(=C(/C)C=O)CC[C@]1(C)O` [Iripallidal, iripallidal], the inhibition constant (Ki) at PKCα [1] is 0.0756 µM.

For the compound `CCCCCCCCCCc1ccc2c(c1)N[C@@H](C(C)C)C(=O)N[C@H](CO)C2` [9-Decyl-benzolactam-V8, 9-decyl-benzolactam-V8], the inhibition constant Ki at PKCα [1] was 0.0038 µM.

Consider `Cc1c(OCc2cccc(C(F)(F)F)c2)nc(CO)nc1C(=O)OCc1cccc(C(F)(F)F)c1` [Compound 2f, 3-(trifluoromethyl)benzyl 2-(hydroxymethyl)-5-methyl-6-[[3-(trifluoromethyl)benzyl]oxy]pyrimidine-4-carboxylate], for which the “Displacement assay raw data (CCPM)” value at PKCα [2] (0,2 µM test substance) is 5892 CCPM and 5535 CCPM and 6214 CCPM and 6493 CCPM and 5681 CCPM and 5606 CCPM; at PKCα [2] (1 µM test substance) it was 5789 CCPM and 5065 CCPM and 5775 CCPM and 6129 CCPM and 5689 CCPM; on PKCα [2] (4 µM test substance), 5908 CCPM and 5351 CCPM and 5505 CCPM and 4754 CCPM and 5387 CCPM and 5468 CCPM; on PKCα [2] (10 µM test substance) it was 5951 CCPM and 5634 CCPM and 5541 CCPM and 5247 CCPM and 5397 CCPM and 4899 CCPM; at PKCα [2] (20 µM test substance) it was 5509 CCPM and 4316 CCPM and 5047 CCPM and 4822 CCPM and 4931 CCPM and 4834 CCPM; at PKCα [2] (30 µM test substance) it was 5249 CCPM and 4747 CCPM and 5046 CCPM and 4792 CCPM and 4631 CCPM and 4673 CCPM. For the same compound, at PKCα [2] (20 μM compound concentration, mean + SEM, n = 2–8), the “Residual [^3H]PDBu binding to PKCα (% of control)” value is 90.5 ± 6.0 % of control.

Regarding `C=C(C)[C@@]12O[C@@]3(c4ccccc4)O[C@@H]1[C@@H]1[C@@H]4O[C@]4(CO)[C@@H](O)[C@]4(O)C(=O)C(C)=C[C@H]4[C@@]1(O3)[C@H](C)[C@H]2OC(=O)/C=C/C=C/c1ccccc1` [Mezerein, mezerein], the inhibitory constant (Ki) at PKCα [1] was 0.00027 µM.
